Assay results: US5216005A, “Immunosuppressive analogues and derivatives of succinylacetone” (priority 1990, dated 1993)

Experiments:
Assay type in all cases: cell-based
[1] = system: IFN-γ (human lymphoid cells); assay: IFN-γ production in primary mixed lymphocyte reaction (WISH cells/EMC virus assay); set-up: IFN-γ: unit not given here; settings: for IFN-γ: 1° MLR
Procedure: Derivatives of succinylacetone were tested for immunosuppressive activity in several different types of assay systems. The first consisted of measuring the amounts of interleukin-2 (IL-2), and interferon-γ (IFN-γ) produced by human lymphoid cells in a mixed lymphocyte reaction. Low levels of these molecules in the reaction mixture indicate that the immune system is being suppressed by the subject succinylacetone derivatives.
IFN-γ was determined by measuring the amount of protection conveyed on human WISH cells against the cytopathic effects of encephalomyocarditis virus (EMC). This assay is described by I. A. Braude, J. of Immunol. Methods 63:237 (1983). Both publications are hereby incorporated by reference.
(§1) The mixed lymphocyte reaction assay can be carried out by techniques well known to those skilled in the art. L. Hudson and F. C. Huy, Practical Immunology, p. 260, Blackwell Scientific Publications (1976). Briefly this consists of isolating lymphocytes from human peripheral blood by standard density gradient centrifugation techniques from two separate individuals. Approximately 2×10^5 lymphocytes of each individual are combined to yield a total of 4×10^5 lymphocytes per culture. All procedures are carried out under sterile conditions, and the lymphocytes are isolated and kept in physiologically compatible solutions. To the mixture of lymphocytes is added a desired amount of an appropriate succinylacetone derivative, and after different times an aliquot of the mixture is removed and assayed for IL-2 or IFN-γ, or ^3 H-T is measured.

human lymphocytes [2] = assay: tritiated thymidine uptake in primary mixed lymphocyte reaction; settings: for incorporation of tritiated thymidine: Table IV
Source text: The in vitro mixed lymphocyte assay described below is presently employed in the clinical setting as an indicator of histocompatibility, and is premised on the transformation of resting genetically dissimilar lymphocytes into cells which synthesize DNA and undergo proliferation.
as §1
As mentioned above, one measure of an immune response as reflected in a mixed lymphocyte assay is the stimulation of DNA synthesis, and a concomitant increase in cell number. Thus, to further ascertain the immunosuppressive activity of succinylacetonyl-proline-NH-PEG, its effect on inhibition of thymocyte growth, as detected by uptake of tritiated thymidine, was assayed.

human lymphoid cells = assay: tritiated thymidine uptake in secondary mixed lymphocyte reaction; settings: 2°-MLR; for inhibition at 740 µM / inhibition at 2200 µM / inhibition at 6700 µM / inhibition at 20000 µM: Homo sapiens, Lymphocyte
Procedure: In addition to testing the immunosuppressive activities of succinylacetone derivatives in a primary mixed lymphocyte reaction, or a phytohemagglutinin stimulation assay, two of the derivatives, succinylacetone methyl ester and methyl 4-acetyl-5-oxohexanoate, were tested in a secondary mixed lymphocyte reaction assay. The secondary mixed lymphocyte assays differs from the primary mixed lymphocyte reaction assays in that they employ many more primed responder cells that are responsive to the primary stimulating cells. The presence of such responsive cells is a reflection of immunological memory in an ongoing immunological response. […] These cells are then used in the secondary mixed lymphocyte reaction. It is worth noting that because a secondary mixed lymphocyte reaction is greatly enriched for responsive cells, fewer cells can be used in the secondary assay.
It will be appreciated that described therein is a method for carrying out secondary lymphocyte reactions using mouse cells, however such methods are generally applicable to performing secondary mixed lymphocyte reactions using human cells with modifications that are well known to those skilled in the art. […] The assays were conducted in duplicate involving lymphoid cells isolated from two individuals.

human lymphocytes [3] = assay: phytohemagglutinin (PHA) stimulation assay, tritiated thymidine uptake
Procedure: A second assay widely used to study immune responsiveness is mitogenic stimulation of thymocytes with antigenic substances of plant origin. The most widely used plant molecule is phytohemagglutinin (PHA).
The procedure for carrying out the phytohaemagglutinin assay is also well known to those skilled in the art. Briefly, it consists of isolating human lymphocytes as described above, and incubating about 1.0×10^6 cells per ml in a suitable physiological solution with phytohaemagglutinin, and the appropriate concentration of succinylacetone-proline-NH-PEG. Tritiated thymidine is added 48 hours later and allowed to incubate for twenty-four hours before the cells are counted.

Question: Which IFN-γ ([1]; Exp I, 3 μM) does the source give for `COC(=O)CCC(C(C)=O)C(C)=O` [Methyl 4-Acetyl-5-Oxohexanoate, methyl 4-acetyl-5-oxohexanoate] here?
Answer: 1260

Question: What about the IFN-γ ([1]; Exp I, 9 μM) of the same molecule?
Answer: 1260

Question: And the IFN-γ ([1]; Exp I, 27 μM)?
Answer: 1260

Question: And the IFN-γ ([1]; Exp I, 81 μM)?
Answer: 1313

Question: What about the IFN-γ ([1]; Exp I, 244 μM) of the same molecule?
Answer: 998

Question: And the IFN-γ ([1]; Exp I, 733 μM)?
Answer: 570

Question: And the IFN-γ ([1]; Exp I, 2.2 mM)?
Answer: 285

Question: What about the IFN-γ ([1]; Exp I, 6.7 mM) of the same molecule?
Answer: < 285

Question: What about the IFN-γ ([1]; Exp I, 20 mM) of the same molecule?
Answer: < 285

Question: What about the IFN-γ ([1]; Exp II, 3 μM) of the same molecule?
Answer: 1144

Question: And the IFN-γ ([1]; Exp II, 9 μM)?
Answer: 1248

Question: What about the IFN-γ ([1]; Exp II, 27 μM) of the same molecule?
Answer: 1248

Question: And the IFN-γ ([1]; Exp II, 81 μM)?
Answer: 1560

Question: And the IFN-γ ([1]; Exp II, 244 μM)?
Answer: 1953

Question: And the IFN-γ ([1]; Exp II, 733 μM)?
Answer: 1172

Question: What about the IFN-γ ([1]; Exp II, 2.2 mM) of the same molecule?
Answer: 703

Question: And the IFN-γ ([1]; Exp II, 6.7 mM)?
Answer: < 469

Question: What about the IFN-γ ([1]; Exp II, 20 mM) of the same molecule?
Answer: < 469

Question: And the IC50 ([1]; Homo sapiens, Lymphocyte, primary MLR, read-out: concentration causing 50% reduction in IFN-γ production)?
Answer: ~2200 µM

Question: What about the IC50 (human lymphocytes [2]; Homo sapiens, Lymphocyte, primary MLR, read-out: concentration causing 50% inhibition in thymidine uptake) of the same molecule?
Answer: ~2200 µM

Question: What about the “incorporation of tritiated thymidine” value (human lymphocytes [2]; Exp I, 3 μM) of the same molecule?
Answer: 74259

Question: What about the “incorporation of tritiated thymidine” value (human lymphocytes [2]; Exp I, 9 μM) of the same molecule?
Answer: 77627

Question: What about the “incorporation of tritiated thymidine” value (human lymphocytes [2]; Exp I, 27 μM) of the same molecule?
Answer: 77634

Question: And the “incorporation of tritiated thymidine” value (human lymphocytes [2]; Exp I, 81 μM)?
Answer: 81881

Question: And the “incorporation of tritiated thymidine” value (human lymphocytes [2]; Exp I, 244 μM)?
Answer: 48284

Question: And the “incorporation of tritiated thymidine” value (human lymphocytes [2]; Exp I, 733 μM)?
Answer: 67787

Question: And the “incorporation of tritiated thymidine” value (human lymphocytes [2]; Exp I, 2.2 mM)?
Answer: 29389

Question: And the “incorporation of tritiated thymidine” value (human lymphocytes [2]; Exp I, 6.7 mM)?
Answer: 135

Question: What about the “incorporation of tritiated thymidine” value (human lymphocytes [2]; Exp I, 20 mM) of the same molecule?
Answer: 163

Question: What about the “incorporation of tritiated thymidine” value (human lymphocytes [2]; Exp II, 3 μM) of the same molecule?
Answer: 114713

Question: And the “incorporation of tritiated thymidine” value (human lymphocytes [2]; Exp II, 9 μM)?
Answer: 117109

Question: What about the “incorporation of tritiated thymidine” value (human lymphocytes [2]; Exp II, 27 μM) of the same molecule?
Answer: 112463

Question: What about the “incorporation of tritiated thymidine” value (human lymphocytes [2]; Exp II, 81 μM) of the same molecule?
Answer: 113054

Question: And the “incorporation of tritiated thymidine” value (human lymphocytes [2]; Exp II, 244 μM)?
Answer: 122672

Question: And the “incorporation of tritiated thymidine” value (human lymphocytes [2]; Exp II, 733 μM)?
Answer: 113732

Question: And the “incorporation of tritiated thymidine” value (human lymphocytes [2]; Exp II, 2.2 mM)?
Answer: 84363

Question: And the “incorporation of tritiated thymidine” value (human lymphocytes [2]; Exp II, 6.7 mM)?
Answer: 21280

Question: And the “incorporation of tritiated thymidine” value (human lymphocytes [2]; Exp II, 20 mM)?
Answer: 109

Question: And the CPM (human lymphoid cells; Exp I, 247 μM)?
Answer: 73805 CPM

Question: And the CPM (human lymphoid cells; Exp I, 740 μM)?
Answer: 61568 CPM

Question: And the CPM (human lymphoid cells; Exp I, 2.2 mM)?
Answer: 1995 CPM

Question: And the CPM (human lymphoid cells; Exp I, 6.7 mM)?
Answer: 112 CPM

Question: What about the CPM (human lymphoid cells; Exp I, 20 mM) of the same molecule?
Answer: 76 CPM

Question: And the CPM (human lymphoid cells; Exp II, 247 μM)?
Answer: 86893 CPM

Question: And the CPM (human lymphoid cells; Exp II, 740 μM)?
Answer: 88958 CPM

Question: What about the CPM (human lymphoid cells; Exp II, 2.2 mM) of the same molecule?
Answer: 43264 CPM

Question: What about the CPM (human lymphoid cells; Exp II, 6.7 mM) of the same molecule?
Answer: 4402 CPM

Question: What about the CPM (human lymphoid cells; Exp II, 20 mM) of the same molecule?
Answer: 134 CPM

Question: What about the inhibition at 740 µM (human lymphoid cells; Exp I, 740 μM) of the same molecule?
Answer: 23.6%

Question: And the inhibition at 2200 µM (human lymphoid cells; Exp I, 2.2 mM)?
Answer: 97.5%

Question: And the inhibition at 6700 µM (human lymphoid cells; Exp I, 6.7 mM)?
Answer: 9.99%

Question: And the inhibition at 20000 µM (human lymphoid cells; Exp I, 20 mM)?
Answer: 9.99%

Question: What about the inhibition at 740 µM (human lymphoid cells; Exp II, 740 μM) of the same molecule?
Answer: 4.8%

Question: What about the inhibition at 2200 µM (human lymphoid cells; Exp II, 2.2 mM) of the same molecule?
Answer: 53.7%

Question: And the inhibition at 6700 µM (human lymphoid cells; Exp II, 6.7 mM)?
Answer: 95.3%

Question: And the inhibition at 20000 µM (human lymphoid cells; Exp II, 20 mM)?
Answer: 9.99%

Question: And the IC50 (human lymphocytes [3]; Homo sapiens, Lymphocyte, both assays (two individuals), read-out: concentration causing about 50% inhibition in PHA stimulation)?
Answer: ~309 µM

Question: And the “PHA stimulation, cpm ± SD” value (human lymphocytes [3]; first experiment, 3.8 μM)?
Answer: 19888 cpm

Question: What about the “PHA stimulation, cpm ± SD” value (human lymphocytes [3]; first experiment, 11 μM) of the same molecule?
Answer: 19401 cpm

Question: And the “PHA stimulation, cpm ± SD” value (human lymphocytes [3]; first experiment, 34 μM)?
Answer: 19399 cpm

Question: And the “PHA stimulation, cpm ± SD” value (human lymphocytes [3]; first experiment, 103 μM)?
Answer: 18677 cpm

Question: And the “PHA stimulation, cpm ± SD” value (human lymphocytes [3]; first experiment, 309 μM)?
Answer: 14098 cpm

Question: What about the “PHA stimulation, cpm ± SD” value (human lymphocytes [3]; first experiment, 926 μM) of the same molecule?
Answer: 2776 cpm

Question: And the “PHA stimulation, cpm ± SD” value (human lymphocytes [3]; first experiment, 2.8 mM)?
Answer: 116 cpm

Question: And the “PHA stimulation, cpm ± SD” value (human lymphocytes [3]; first experiment, 25 mM)?
Answer: 200 cpm

Question: And the “PHA stimulation, cpm ± SD” value (human lymphocytes [3]; first experiment, 83 mM)?
Answer: 192 cpm

Question: And the “PHA stimulation, cpm ± SD” value (human lymphocytes [3]; second experiment, 3.8 μM)?
Answer: 33799 cpm

Question: What about the “PHA stimulation, cpm ± SD” value (human lymphocytes [3]; second experiment, 11 μM) of the same molecule?
Answer: 33417 cpm

Question: What about the “PHA stimulation, cpm ± SD” value (human lymphocytes [3]; second experiment, 34 μM) of the same molecule?
Answer: 34006 cpm

Question: And the “PHA stimulation, cpm ± SD” value (human lymphocytes [3]; second experiment, 103 μM)?
Answer: 30569 cpm

Question: And the “PHA stimulation, cpm ± SD” value (human lymphocytes [3]; second experiment, 309 μM)?
Answer: 19713 cpm

Question: What about the “PHA stimulation, cpm ± SD” value (human lymphocytes [3]; second experiment, 926 μM) of the same molecule?
Answer: 5600 cpm

Question: What about the “PHA stimulation, cpm ± SD” value (human lymphocytes [3]; second experiment, 2.8 mM) of the same molecule?
Answer: 717 cpm

Question: And the “PHA stimulation, cpm ± SD” value (human lymphocytes [3]; second experiment, 25 mM)?
Answer: 200 cpm

Question: What about the “PHA stimulation, cpm ± SD” value (human lymphocytes [3]; second experiment, 83 mM) of the same molecule?
Answer: 156 cpm
